Data taken from patent publication US20030044861A1, “Method for diagnosing neoplasia” (priority 1998, published 2003).

Key:
[1] = tested on: A-427, Lung; test: Growth inhibition of A-427 cells; assay type: cell-based; conditions: Homo sapiens
Description: (§1) Briefly, suspected neoplastic tissue samples are removed from a patient and grown as explants in vitro. The tissue samples are grown in the presence and absence of a cGMP-specific PDE inhibitor. After being grown in culture, cells are fixed by the addition of cold trichloroacetic acid. Protein levels are measured using the sulforhodamine B (SRB) colorimetric protein stain assay as previously described by Skehan, P., Storeng, R., Scudiero, D., Monks, A., McMahon, J., Vistica, D., Warren, J. T., Bokesch, H., Kenney, S., and Boyd, M. R., “New Colorimetric Assay For Anticancer-Drug Screening,” J. Natl. Cancer Inst. 82: 1107-1112, 1990, which is incorporated herein by reference.
(§2) To show the effectiveness of cGMP-specific PDE inhibition on various forms of neoplasia, (and, therefore, the usefulness of the diagnostic methods of this invention) cGMP-specific PDE inhibitors were tested on a number of neoplastic cell lines. […] Exisulind is defined as (Z)-5-fluoro-2-methyl-1-[[4-(methylsulfonyl)phenyl]methylene]indene-3-yl acetic acid or a salt thereof. The IC50 values were determined by the SRB assay.

[2] = molecular target: T1, PDE peak A (PDE5) from SW-480 cells (Homo sapiens, UniProt O76074); test: cGMP hydrolysis by PDE peak A; assay type: biochemical
T1 construct: SW-480 cells are collected and homogenized; The homogenate is centrifuged, and the supernatant is loaded onto a DEAE-Trisacryl M column; endogenous in cells; host or cells: SW-480 human colon carcinoma cells, DEAE-Trisacryl M fraction peak A

[3] = tested on: HCT116, Colon; test: Growth inhibition of HCT116 cells; assay type: cell-based; conditions: Homo sapiens, HCT-116
Description: as §1, §2

[4] = tested on: PDE peak B (novel cGMP-specific PDE) from SW-480 cells; test: cGMP hydrolysis by PDE peak B; assay type: biochemical, human
[5] = tested on: HT-29 cells; test: Apoptosis and necrosis by morphology (acridine orange/ethidium bromide); assay type: cell-based; conditions: HT-29 cells treated for six days
Description: In one type of apoptosis assay, suspected neoplastic cells are removed from a patient. The cells are then grown in culture in the presence or absence of a cGMP-specific PDE inhibitor. Apoptotic cells are measured by combining both the attached and “floating” compartments of the cultures. The protocol for treating tumor cell cultures with PDE inhibitors and related compounds to obtain a significant amount of apoptosis has been described in the literature. (See, Piazza, G. A., et al., Cancer Research, 55:3110-16, 1995, which is incorporated herein by reference). The novel features of this assay include collecting both floating and attached cells, identification of the optimal treatment times and dose range for observing apoptosis, and identification of optimal cell culture conditions.
Following treatment of neoplastic and normal cells with a test compound, cultures can be assayed for apoptosis and necrosis by fluorescent microscopy following labeling with acridine orange and ethidium bromide. The method for measuring apoptotic cell number has previously been described by Duke & Cohen, “Morphological And Biochemical Assays Of Apoptosis,” Current Protocols In Immunology, Coligan et al., eds. 3.17.1-3.17.16 (1992, which is incorporated herein by reference).
For example, floating and attached cells are collected, and aliquots of cells are centrifuged. The cell pellet is then resuspended in media and a dye mixture containing acridine orange and ethidium bromide. The mixture is then examined microscopically for morphological features of apoptosis.
Apoptotic and necrotic cell death was determined as previously described (Duke and Cohen, In: Current Protocols in Immunology, 3.17.1-3.17.16, New York, John Wiley and Sons, 1992). […] All data were collected from the same experiment.
The diagnostic method of this invention is used to determine whether a particular neoplasia is sensitive to treatment with a cGMP-specific PDE inhibitor. The apoptosis inducing activity for a series of phosphodiesterase inhibitors, specific for different PDEs, was determined. HT-29 cells were treated for 6 days with various inhibitors of phosphodiesterase. Apoptosis and necrosis were determined morphologically after acridine orange and ethidium bromide labeling in accordance with the assay described, supra.

[6] = tested on: neoplastic cells; test: Apoptosis induction and growth inhibition in neoplastic cells (words only); assay type: cell-based

Structure (SMILES): CSc1ccc(/C=C2/C(C)=C(CC(=O)O)c3cc(F)ccc32)cc1 [Sulindac sulfide]
- IC50 [1]: 90 µM
- Mode of inhibition of cGMP hydrolysis, peak A [2]: competitively inhibit
- IC50 [3]: 45 µM
- Mode of inhibition of cGMP hydrolysis, peak B [4]: competitively inhibit
- Apoptotic and necrotic cell death (FIG. 1, in words) [5]: capable of causing apoptotic cell death without inducing neoplastic cell necrosis
- Apoptosis induction in neoplastic cells (in words) [6]: induce apoptosis in neoplastic cells
- Growth inhibition of neoplastic cells (in words) [6]: precisely the opposite
